{
  "source": "paper PMC8429728",
  "about": "“TNK1 is a ubiquitin-binding and 14-3-3-regulated kinase that can be targeted to block tumor growth” (Nature Communications, 2021)",
  "assay_in_all_cases": "biochemical",
  "set-up_in_all_cases": "Reaction Biology 371-kinase panel at Km ATP, per cent enzyme activity relative to DMSO, single dose in duplicate",
  "key": {"[1]": {"target": "ROCK2 (Homo sapiens, UniProt O75116)", "details": "duplicate measurements, Km ATP; read-out: % Enzyme Activity (relative to DMSO controls) / TP-0005801 (0.3µM) / Data 1", "summary_of_the_method": "(§1)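 In vitro selectivity panel: 371 kinases, inhibitor at 300 nM; % activity vs DMSO; IC50 by variable-slope sigmoidal fit, bottom = 0.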"}, "[2]": {"target": "ALK1/ACVRL1 (Homo sapiens, UniProt P37023)", "details": "duplicate measurements, Km ATP", "summary_of_the_method": "as §1"}, "[3]": {"target": "MRCKa/CDC42BPA (Homo sapiens, UniProt Q5VT25)", "details": "duplicate measurements, Km ATP", "summary_of_the_method": "as §1"}, "[4]": {"target": "T1, MKK4 (Homo sapiens, UniProt P45985)", "T1 construct": "gene MAP2K4", "T1 sequence (P45985 whole entry)": "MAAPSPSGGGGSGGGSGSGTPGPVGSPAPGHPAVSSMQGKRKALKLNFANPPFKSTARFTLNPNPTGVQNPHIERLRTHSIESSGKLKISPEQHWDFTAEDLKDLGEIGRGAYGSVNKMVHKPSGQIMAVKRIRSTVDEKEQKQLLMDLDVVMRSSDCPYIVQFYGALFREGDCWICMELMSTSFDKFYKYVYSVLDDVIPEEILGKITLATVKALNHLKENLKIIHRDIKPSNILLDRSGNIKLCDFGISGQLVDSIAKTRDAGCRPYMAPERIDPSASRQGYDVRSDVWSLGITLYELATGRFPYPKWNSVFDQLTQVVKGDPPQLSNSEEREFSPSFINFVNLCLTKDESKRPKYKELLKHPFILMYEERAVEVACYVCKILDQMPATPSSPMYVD", "details": "duplicate measurements, Km ATP", "summary_of_the_method": "as §1"}, "[5]": {"target": "MST3/STK24 (Homo sapiens, UniProt Q9Y6E0)", "details": "duplicate measurements, Km ATP", "summary_of_the_method": "as §1"}, "[6]": {"target": "T2, MEKK1 (Homo sapiens, UniProt Q13233)", "T2 construct": "gene MAP3K1", "details": "duplicate measurements, Km ATP", "summary_of_the_method": "as §1"}, "[7]": {"target": "FRK/PTK5 (Homo sapiens, UniProt P42685)", "sequence (P42685 whole entry)": "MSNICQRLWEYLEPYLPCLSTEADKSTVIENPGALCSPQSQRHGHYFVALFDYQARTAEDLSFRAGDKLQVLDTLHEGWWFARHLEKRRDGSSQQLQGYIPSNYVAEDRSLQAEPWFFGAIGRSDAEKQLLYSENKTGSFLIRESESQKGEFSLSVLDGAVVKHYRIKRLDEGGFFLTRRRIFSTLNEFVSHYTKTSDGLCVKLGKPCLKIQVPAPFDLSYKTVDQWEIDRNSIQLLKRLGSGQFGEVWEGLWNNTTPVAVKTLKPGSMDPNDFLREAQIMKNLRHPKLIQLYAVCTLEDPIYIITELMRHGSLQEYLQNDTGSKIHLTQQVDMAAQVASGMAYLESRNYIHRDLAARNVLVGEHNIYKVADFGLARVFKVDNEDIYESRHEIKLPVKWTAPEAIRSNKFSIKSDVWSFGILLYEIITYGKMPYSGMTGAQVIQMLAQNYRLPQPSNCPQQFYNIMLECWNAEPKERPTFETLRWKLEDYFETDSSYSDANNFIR", "details": "duplicate measurements, Km ATP", "summary_of_the_method": "as §1"}, "[8]": {"target": "FLT3 (Homo sapiens, UniProt P36888)", "details": "duplicate measurements, Km ATP", "summary_of_the_method": "as §1"}, "[9]": {"target": "RIPK4 (Homo sapiens, UniProt P57078)", "details": "duplicate measurements, Km ATP", "summary_of_the_method": "as §1"}, "[10]": {"target": "DYRK1/DYRK1A (Homo sapiens, UniProt Q13627)", "details": "duplicate measurements, Km ATP", "summary_of_the_method": "as §1"}, "[11]": {"target": "T3, CK1a1 (Homo sapiens, UniProt P48729)", "T3 construct": "gene CSNK1A1", "T3 sequence (P48729 whole entry)": "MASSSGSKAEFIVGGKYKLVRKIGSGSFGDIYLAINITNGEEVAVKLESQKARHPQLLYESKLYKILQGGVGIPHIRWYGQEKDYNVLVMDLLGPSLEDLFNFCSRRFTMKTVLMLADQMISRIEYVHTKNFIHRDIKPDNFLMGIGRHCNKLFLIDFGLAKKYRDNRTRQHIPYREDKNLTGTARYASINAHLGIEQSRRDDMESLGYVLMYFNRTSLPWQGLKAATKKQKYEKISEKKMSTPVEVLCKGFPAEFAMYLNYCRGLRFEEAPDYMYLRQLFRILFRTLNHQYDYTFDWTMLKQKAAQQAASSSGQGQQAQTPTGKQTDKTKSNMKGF", "details": "duplicate measurements, Km ATP", "summary_of_the_method": "as §1"}, "[12]": {"target": "T4, ACK1 (Homo sapiens, UniProt Q07912)", "T4 construct": "gene TNK2", "details": "duplicate measurements, Km ATP", "summary_of_the_method": "as §1"}, "[13]": {"target": "T5, MNK2 (Homo sapiens, UniProt Q9HBH9)", "T5 construct": "gene MKNK2", "T5 sequence (Q9HBH9 whole entry)": "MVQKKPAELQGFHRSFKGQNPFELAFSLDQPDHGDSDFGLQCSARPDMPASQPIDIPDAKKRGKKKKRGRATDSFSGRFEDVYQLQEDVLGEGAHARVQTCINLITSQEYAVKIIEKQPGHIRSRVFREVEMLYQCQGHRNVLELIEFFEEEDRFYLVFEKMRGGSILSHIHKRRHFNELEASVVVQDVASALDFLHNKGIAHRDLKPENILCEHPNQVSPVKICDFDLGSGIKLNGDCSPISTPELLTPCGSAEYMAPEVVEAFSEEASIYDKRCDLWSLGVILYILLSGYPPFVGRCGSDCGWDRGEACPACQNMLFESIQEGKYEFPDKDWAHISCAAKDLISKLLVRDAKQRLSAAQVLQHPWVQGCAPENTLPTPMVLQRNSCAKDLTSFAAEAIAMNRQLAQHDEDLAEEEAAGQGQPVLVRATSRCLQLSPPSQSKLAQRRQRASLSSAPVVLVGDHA", "details": "duplicate measurements, Km ATP", "summary_of_the_method": "as §1"}, "[14]": {"target": "CLK2 (Homo sapiens, UniProt P49760)", "details": "duplicate measurements, Km ATP", "summary_of_the_method": "as §1"}, "[15]": {"target": "T6, RSK4 (Homo sapiens, UniProt Q9UK32)", "T6 construct": "gene RPS6KA6", "details": "duplicate measurements, Km ATP", "summary_of_the_method": "as §1"}, "[16]": {"target": "PDGFRb (Homo sapiens, UniProt P09619)", "sequence (P09619 whole entry)": "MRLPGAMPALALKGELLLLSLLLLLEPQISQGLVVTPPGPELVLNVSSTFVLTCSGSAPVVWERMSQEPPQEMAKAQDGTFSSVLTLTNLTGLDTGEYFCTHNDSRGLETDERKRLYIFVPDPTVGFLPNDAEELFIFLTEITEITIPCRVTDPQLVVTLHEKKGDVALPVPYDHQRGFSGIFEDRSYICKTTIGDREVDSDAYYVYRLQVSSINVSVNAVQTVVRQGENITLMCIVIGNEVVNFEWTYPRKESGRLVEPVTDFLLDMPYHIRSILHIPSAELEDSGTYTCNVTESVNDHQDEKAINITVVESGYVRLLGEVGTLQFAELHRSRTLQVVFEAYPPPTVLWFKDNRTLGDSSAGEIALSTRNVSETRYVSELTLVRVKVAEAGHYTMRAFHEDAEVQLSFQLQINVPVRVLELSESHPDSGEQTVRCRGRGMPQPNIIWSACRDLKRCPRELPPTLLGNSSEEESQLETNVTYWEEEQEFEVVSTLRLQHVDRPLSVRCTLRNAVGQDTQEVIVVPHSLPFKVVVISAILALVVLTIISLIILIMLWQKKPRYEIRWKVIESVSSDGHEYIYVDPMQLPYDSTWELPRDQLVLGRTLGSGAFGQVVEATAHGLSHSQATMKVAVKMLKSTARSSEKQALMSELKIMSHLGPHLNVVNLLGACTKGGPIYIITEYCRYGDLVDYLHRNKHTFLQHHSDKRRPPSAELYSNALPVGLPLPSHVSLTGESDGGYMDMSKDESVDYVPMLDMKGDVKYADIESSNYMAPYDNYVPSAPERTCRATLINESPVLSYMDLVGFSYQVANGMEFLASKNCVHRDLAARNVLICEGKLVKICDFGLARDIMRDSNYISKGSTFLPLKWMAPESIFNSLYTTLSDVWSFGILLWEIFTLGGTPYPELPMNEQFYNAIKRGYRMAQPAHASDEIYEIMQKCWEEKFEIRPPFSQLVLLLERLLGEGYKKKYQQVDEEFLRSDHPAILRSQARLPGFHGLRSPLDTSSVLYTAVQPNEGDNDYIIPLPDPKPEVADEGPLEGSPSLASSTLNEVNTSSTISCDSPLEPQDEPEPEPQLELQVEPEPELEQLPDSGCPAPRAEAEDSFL", "details": "duplicate measurements, Km ATP", "summary_of_the_method": "as §1"}, "[17]": {"target": "PAK1 (Homo sapiens, UniProt Q13153)", "sequence (Q13153 whole entry)": "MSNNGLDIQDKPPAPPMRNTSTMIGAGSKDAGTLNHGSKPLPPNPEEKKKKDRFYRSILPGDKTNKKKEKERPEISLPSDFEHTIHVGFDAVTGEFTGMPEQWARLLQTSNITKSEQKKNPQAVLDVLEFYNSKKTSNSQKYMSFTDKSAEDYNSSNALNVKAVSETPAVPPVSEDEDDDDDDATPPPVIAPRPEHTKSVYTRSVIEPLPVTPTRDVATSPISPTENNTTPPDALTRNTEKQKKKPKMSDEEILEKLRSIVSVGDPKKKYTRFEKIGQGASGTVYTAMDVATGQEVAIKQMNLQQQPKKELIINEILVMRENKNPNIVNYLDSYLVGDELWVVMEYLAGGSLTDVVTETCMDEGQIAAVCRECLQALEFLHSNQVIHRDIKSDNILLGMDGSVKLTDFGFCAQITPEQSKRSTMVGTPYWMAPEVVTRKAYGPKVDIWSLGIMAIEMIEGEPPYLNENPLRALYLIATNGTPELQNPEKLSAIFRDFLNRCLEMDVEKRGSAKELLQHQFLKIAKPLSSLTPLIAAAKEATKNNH", "details": "duplicate measurements, Km ATP", "summary_of_the_method": "as §1"}, "[18]": {"target": "SGK2 (Homo sapiens, UniProt Q9HBY8)", "sequence (Q9HBY8 whole entry)": "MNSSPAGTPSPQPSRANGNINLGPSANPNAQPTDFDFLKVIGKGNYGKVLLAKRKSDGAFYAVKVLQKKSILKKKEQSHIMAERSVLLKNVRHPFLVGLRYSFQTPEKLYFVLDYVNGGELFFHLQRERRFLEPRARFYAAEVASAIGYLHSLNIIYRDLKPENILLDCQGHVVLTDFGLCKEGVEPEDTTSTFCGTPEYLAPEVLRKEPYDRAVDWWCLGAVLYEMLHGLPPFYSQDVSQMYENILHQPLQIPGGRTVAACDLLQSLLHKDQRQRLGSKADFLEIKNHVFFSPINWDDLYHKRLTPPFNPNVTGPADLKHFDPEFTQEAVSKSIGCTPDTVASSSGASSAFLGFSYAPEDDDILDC", "details": "duplicate measurements, Km ATP", "summary_of_the_method": "as §1"}, "[19]": {"target": "EPHB2 (Homo sapiens, UniProt P29323)", "sequence (P29323 whole entry)": "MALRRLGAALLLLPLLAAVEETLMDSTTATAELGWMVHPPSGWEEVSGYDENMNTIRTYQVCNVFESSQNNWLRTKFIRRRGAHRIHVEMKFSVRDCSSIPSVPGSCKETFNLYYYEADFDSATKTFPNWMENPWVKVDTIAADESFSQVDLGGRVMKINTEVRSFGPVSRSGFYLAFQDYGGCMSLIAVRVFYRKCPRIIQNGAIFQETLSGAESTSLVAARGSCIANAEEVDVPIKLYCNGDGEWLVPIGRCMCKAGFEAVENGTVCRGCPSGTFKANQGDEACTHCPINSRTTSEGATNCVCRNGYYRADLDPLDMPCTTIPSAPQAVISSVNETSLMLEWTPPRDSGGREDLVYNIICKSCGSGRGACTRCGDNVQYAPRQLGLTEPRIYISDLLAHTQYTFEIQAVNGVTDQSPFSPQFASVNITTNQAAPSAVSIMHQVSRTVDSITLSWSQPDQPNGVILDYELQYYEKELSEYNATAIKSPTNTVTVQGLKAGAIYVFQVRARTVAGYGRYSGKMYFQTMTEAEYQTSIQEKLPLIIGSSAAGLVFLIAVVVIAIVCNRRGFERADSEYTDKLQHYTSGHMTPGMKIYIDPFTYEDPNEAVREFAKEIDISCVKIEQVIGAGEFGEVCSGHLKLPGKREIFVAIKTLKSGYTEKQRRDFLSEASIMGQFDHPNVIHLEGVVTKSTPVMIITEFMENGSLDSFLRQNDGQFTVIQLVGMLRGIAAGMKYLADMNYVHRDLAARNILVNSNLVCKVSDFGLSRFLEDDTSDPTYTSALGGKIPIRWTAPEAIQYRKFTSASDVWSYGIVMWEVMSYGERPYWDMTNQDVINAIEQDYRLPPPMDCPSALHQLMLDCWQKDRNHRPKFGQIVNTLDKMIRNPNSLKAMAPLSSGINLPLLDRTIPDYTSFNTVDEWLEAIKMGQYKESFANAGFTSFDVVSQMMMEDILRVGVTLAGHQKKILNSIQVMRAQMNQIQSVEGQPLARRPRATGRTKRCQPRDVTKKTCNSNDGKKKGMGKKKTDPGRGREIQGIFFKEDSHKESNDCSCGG", "details": "duplicate measurements, Km ATP", "summary_of_the_method": "as §1"}, "[20]": {"target": "TNIK (Homo sapiens, UniProt Q9UKE5)", "details": "duplicate measurements, Km ATP", "summary_of_the_method": "as §1"}, "[21]": {"details": "read-out: % Enzyme Activity (relative to DMSO controls) / TP-0005801 (0.3µM) / Data 1"}, "[22]": {"details": "read-out: % Enzyme Activity (relative to DMSO controls) / TP-0005801 (0.3µM) / Data 2"}},
  "note": "Read-outs that look alike come from different tables or passages of the source.",
  "data": [
    {"smiles": "COc1cc(N2CCN(C)CC2)c(C)cc1Nc1ncc(Br)c(Nc2cccnc2N(C)C)n1", "note": "[TP-5801]", "values": [
      {"measurement": "remaining activity at 0.3 µM", "setting": "[1]", "value": 103, "unit": "%"},
      {"measurement": "remaining activity at 0.3 µM", "setting": "[2]; [21]", "value": 88.3, "unit": "%"},
      {"measurement": "remaining activity at 0.3 µM", "setting": "[2]; [22]", "value": 83.6, "unit": "%"},
      {"measurement": "remaining activity at 0.3 µM", "setting": "[3]; [21]", "value": 104, "unit": "%"},
      {"measurement": "remaining activity at 0.3 µM", "setting": "[3]; [22]", "value": 100, "unit": "%"},
      {"measurement": "remaining activity at 0.3 µM", "setting": "[4]; [21]", "value": 78.8, "unit": "%"},
      {"measurement": "remaining activity at 0.3 µM", "setting": "[4]; [22]", "value": 76, "unit": "%"},
      {"measurement": "remaining activity at 0.3 µM", "setting": "[5]; [21]", "value": 106, "unit": "%"},
      {"measurement": "remaining activity at 0.3 µM", "setting": "[5]; [22]", "value": 103, "unit": "%"},
      {"measurement": "remaining activity at 0.3 µM", "setting": "[6]; [21]", "value": 111, "unit": "%"},
      {"measurement": "remaining activity at 0.3 µM", "setting": "[6]; [22]", "value": 109, "unit": "%"},
      {"measurement": "remaining activity at 0.3 µM", "setting": "[7]; [21]", "value": 72, "unit": "%"},
      {"measurement": "remaining activity at 0.3 µM", "setting": "[7]; [22]", "value": 71, "unit": "%"},
      {"measurement": "remaining activity at 0.3 µM", "setting": "[8]; [21]", "value": 3.9, "unit": "%"},
      {"measurement": "remaining activity at 0.3 µM", "setting": "[8]; [22]", "value": 3.79, "unit": "%"},
      {"measurement": "remaining activity at 0.3 µM", "setting": "[9]; [21]", "value": 117, "unit": "%"},
      {"measurement": "remaining activity at 0.3 µM", "setting": "[9]; [22]", "value": 108, "unit": "%"},
      {"measurement": "remaining activity at 0.3 µM", "setting": "[10]; [21]", "value": 86.5, "unit": "%"},
      {"measurement": "remaining activity at 0.3 µM", "setting": "[10]; [22]", "value": 85.9, "unit": "%"},
      {"measurement": "remaining activity at 0.3 µM", "setting": "[11]; [21]", "value": 94.3, "unit": "%"},
      {"measurement": "remaining activity at 0.3 µM", "setting": "[11]; [22]", "value": 93.1, "unit": "%"},
      {"measurement": "remaining activity at 0.3 µM", "setting": "[12]; [21]", "value": 1.69, "unit": "%"},
      {"measurement": "remaining activity at 0.3 µM", "setting": "[12]; [22]", "value": 1.45, "unit": "%"},
      {"measurement": "remaining activity at 0.3 µM", "setting": "[13]; [21]", "value": 89.8, "unit": "%"},
      {"measurement": "remaining activity at 0.3 µM", "setting": "[13]; [22]", "value": 89, "unit": "%"},
      {"measurement": "remaining activity at 0.3 µM", "setting": "[14]; [21]", "value": 69.8, "unit": "%"},
      {"measurement": "remaining activity at 0.3 µM", "setting": "[14]; [22]", "value": 68.6, "unit": "%"},
      {"measurement": "remaining activity at 0.3 µM", "setting": "[15]; [21]", "value": 79.4, "unit": "%"},
      {"measurement": "remaining activity at 0.3 µM", "setting": "[15]; [22]", "value": 77.9, "unit": "%"},
      {"measurement": "remaining activity at 0.3 µM", "setting": "[16]; [21]", "value": 64.4, "unit": "%"},
      {"measurement": "remaining activity at 0.3 µM", "setting": "[16]; [22]", "value": 64, "unit": "%"},
      {"measurement": "remaining activity at 0.3 µM", "setting": "[17]; [21]", "value": 91.5, "unit": "%"},
      {"measurement": "remaining activity at 0.3 µM", "setting": "[17]; [22]", "value": 86.4, "unit": "%"},
      {"measurement": "remaining activity at 0.3 µM", "setting": "[18]; [21]", "value": 93.7, "unit": "%"},
      {"measurement": "remaining activity at 0.3 µM", "setting": "[18]; [22]", "value": 92.7, "unit": "%"},
      {"measurement": "remaining activity at 0.3 µM", "setting": "[19]; [21]", "value": 86.4, "unit": "%"},
      {"measurement": "remaining activity at 0.3 µM", "setting": "[19]; [22]", "value": 85.6, "unit": "%"},
      {"measurement": "remaining activity at 0.3 µM", "setting": "[20]; [21]", "value": 49.6, "unit": "%"},
      {"measurement": "remaining activity at 0.3 µM", "setting": "[20]; [22]", "value": 48.7, "unit": "%"}
    ]}
  ]
}
